Reference: PubChem BioAssay (NCI)
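Growth conditions: 96-well plates. Treatment: test compound, 48 hours, 5 concentrations. Analysis: linear interpolation between bracketing concentrations; unreached endpoints set to highest concentration. TGI marks complete inhibition of growth.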

Assays:
Assay in all cases: NCI tumour cell line growth inhibition, 48 h
[1] = tested on: NCI-H460 lung
[2] = tested on: OVCAR-3 ovarian
[3] = tested on: MDA-MB-435
[4] = tested on: HCT-116 colon
[5] = tested on: UACC-257 melanoma
[6] = tested on: EKVX NSCLC
[7] = tested on: HT29 colon
[8] = tested on: NCI-H522 lung
[9] = tested on: SK-MEL-5 melanoma
[10] = tested on: MCF7 breast
[11] = tested on: SF-295 CNS
[12] = tested on: NCI/ADR-RES ovarian
[13] = tested on: DU-145 prostate
[14] = tested on: SR leukemia
[15] = tested on: NCI-H23 lung
[16] = tested on: MDA-MB-231 breast
[17] = tested on: OVCAR-8 ovarian
[18] = tested on: T-47D breast
[19] = tested on: HS 578T breast
[20] = tested on: PC-3 prostate
[21] = tested on: 786-0 renal
[22] = tested on: OVCAR-5 ovarian
[23] = tested on: MDA-N
[24] = tested on: HOP-62 NSCLC
[25] = tested on: SNB-75 CNS
[26] = tested on: HL-60(TB) leukemia
[27] = tested on: TK-10 renal
[28] = tested on: NCI-H226 lung
[29] = tested on: SK-MEL-2 melanoma
[30] = tested on: SF-268 CNS
[31] = tested on: K-562 leukemia
[32] = tested on: OVCAR-4 ovarian
[33] = tested on: SW-620 colon
[34] = tested on: SN12C renal
[35] = tested on: RPMI-8226 leukemia
[36] = tested on: COLO 205 colon
[37] = tested on: ACHN renal
[38] = tested on: IGROV1 ovarian
[39] = tested on: KM12 colon
[40] = tested on: UO-31 renal
[41] = tested on: SK-OV-3 ovarian
[42] = tested on: M14 melanoma
[43] = tested on: CAKI-1 renal
[44] = tested on: A498 renal
[45] = tested on: SK-MEL-28 melanoma
[46] = tested on: MOLT-4 leukemia
[47] = tested on: CCRF-CEM leukemia
[48] = tested on: HCT-15 colon
[49] = tested on: SF-539 CNS
[50] = tested on: HCC-2998 colon
[51] = tested on: MALME-3M melanoma
[52] = tested on: A549 NSCLC
[53] = tested on: RXF 393 renal
[54] = tested on: SNB-19 CNS
[55] = tested on: UACC-62 melanoma
[56] = tested on: HOP-92 NSCLC
[57] = tested on: U251 CNS
[58] = tested on: LOX IMVI melanoma

Measured: TGI

CN(C)C=Nc1ccc2nonc2c1
> 100 µM: [1] | [2] | [3] | [4] | [5] | [6] | [7] | [8] | [9] | [10] | [11] | [12] | [13] | [14] | [15] | [16] | [17] | [18] | [19] | [20] | [21] | [22] | [23] | [24] | [25] | [26] | [27] | [28] | [29] | [30] | [31] | [32] | [33] | [34] | [35] | [36] | [37] | [38] | [39] | [40] | [41] | [42] | [43] | [44] | [45] | [46] | [47] | [48] | [49] | [50] | [51] | [52] | [53] | [54] | [55]

CC(C)=CCC/C(C)=C\CC/C(C)=C/CO
42.6 µM: [12]
48.7 µM: [17]
37.6 µM: [7]
43.7 µM: [47]
33.3 µM: [57]
42.2 µM: [31]
43.1 µM: [50]
40.3 µM: [24]
37.2 µM: [42]
> 10 µM: [1] | [58] | [43]
50.4 µM: [32]
65.6 µM: [54]
67.9 µM: [19]
32.3 µM: [51]
70.7 µM: [37]
38.3 µM: [3]
> 100 µM: [5] | [6] | [13] | [16] | [18] | [20] | [22] | [23] | [25] | [27] | [28] | [30] | [33] | [34] | [36] | [39] | [40] | [45] | [48] | [52]
42.9 µM: [46]
35.4 µM: [26]
61.8 µM: [9]
47.8 µM: [49]
47.6 µM: [14]
22.7 µM: [56]
30.4 µM: [2] | [29]
31.1 µM: [21]
62.2 µM: [15]
55.9 µM: [38]
36.9 µM: [4] | [35]
38.2 µM: [10]
57.2 µM: [11]
27.2 µM: [8]
